Measurements: US9636368B2, “Strain of Lactobacillus rhamnosus and its metabolites for use in inhibiting xanthine oxidase and treating gout” (Food Industry Research and Development Institute, priority 2014, dated 2017)

System: uric acid in the serum of the mice
Experiment: Treatment of experimental uricemia: potassium oxonate-induced high serum uric acid in ICR mice
Format: in vivo
Conditions: potassium oxonate (400 mg/kg) + allopurinol 10 mg/kg, fed via feeding tube, sacrificed after one hour, oxonate alone 4.91 ± 0.08, saline control 3.51 ± 0.02
Procedure: Lactobacillus rhamnosus I21 was inoculated on an MRS plate and cultured at 37° C. for 3 days. Bacteria were scraped from the plate using a 1 μl sterile inoculation loop, inoculated into MRS broth, and grown at 37° C. for 1 day to prepare an inoculum. The inoculum (30 ml) was then added into 3 L MRS broth in a 5 L fermenter and grown at 37° C. for 2 days. The fermentation broth was centrifuged at 3000 rpm for 15 min. The supernatant was collected and lyophilized to produce the Lactobacillus rhamnosus I21 fermentation product.
ICR mice were used as experimental animals. Potassium oxonate, a uricase inhibitor, was used to induce a high level of uric acid in the serum of the mice. Mice were fasted for one hour and then fed saline or potassium oxonate (400 mg/kg) via a feeding tube. After one hour, potassium oxonate-treated mice were fed saline, allopurinol (10 mg/kg), or a Lactobacillus rhamnosus I21 fermentation product (150 mg or 200 mg resuspended in saline per mouse) prepared as described above. Ten animals were used for each experimental group and for the control group. The animals were sacrificed after one hour and the level of uric acid in their serum was analyzed.

Oc1ncnc2[nH]ncc12 [allopurinol]
serum uric acid concentration: 2.82 ± 0.28 mg/dL
